Experimental data published in patent US20100317624A1 (ASTRAZENECA AB, priority 2009, published 2010).
Where a name gives a salt, the structure may show the parent alone.

These compounds were tested against S. aureus GyrB ATPase (Staphylococcus aureus, UniProt P0A0K8) (assay: S. aureus GyrB ATPase inhibition (ammonium molybdate/malachite green phosphate detection)). Settings: compound at 1 μM; inhibition of S. aureus GyrB ATPase; read-out: Percent Inhibition (1 μM).
Format: biochemical
Procedure: S. aureus GyrB ATPase Inhibition Activity: Compounds may be tested for inhibition of S. aureus GyrB ATPase activity using an ammonium molybdate/malachite green-based phosphate detection assay (Lanzetta, P. A., L. J. Alvarez, P. S. Reinach, and O. A. Candia, 1979, 100: 95-97). Assays can be performed in multiwell plates in 30 μl reactions containing: 50 mM Hepes buffer pH 7.5, 75 mM ammonium acetate, 8.0 mM magnesium chloride, 0.5 mM ethylenediaminetetraacetic acid, 5% glycerol, 1.0 mM 1,4-Dithio-DL-threitol, 200 nM bovine serum albumin, 1.0 μg/ml sheared salmon sperm DNA, 250 pM E. coli GyrA, 250 pM S. aureus GyrB, 250 μM ATP, and compound in dimethylsulfoxide. Reactions can be quenched with 30 μl of ammonium molybdate/malachite green detection reagent containing 1.2 mM malachite green hydrochloride, 8.5 mM ammonium molybdate tetrahydrate, and 1 M hydrochloric acid. Plates can be read in an absorbance plate reader at 650 nm and percent inhibition values can be calculated using dimethylsulfoxide (2%)-containing reactions as 0% inhibition and EDTA-containing ([…]) reactions as 100% inhibition controls. An IC50 measurement of compound potency for each compound can be determined from reactions performed in the presence of 10 different compound concentrations.

Sequence of S. aureus GyrB ATPase (P0AES4 whole entry): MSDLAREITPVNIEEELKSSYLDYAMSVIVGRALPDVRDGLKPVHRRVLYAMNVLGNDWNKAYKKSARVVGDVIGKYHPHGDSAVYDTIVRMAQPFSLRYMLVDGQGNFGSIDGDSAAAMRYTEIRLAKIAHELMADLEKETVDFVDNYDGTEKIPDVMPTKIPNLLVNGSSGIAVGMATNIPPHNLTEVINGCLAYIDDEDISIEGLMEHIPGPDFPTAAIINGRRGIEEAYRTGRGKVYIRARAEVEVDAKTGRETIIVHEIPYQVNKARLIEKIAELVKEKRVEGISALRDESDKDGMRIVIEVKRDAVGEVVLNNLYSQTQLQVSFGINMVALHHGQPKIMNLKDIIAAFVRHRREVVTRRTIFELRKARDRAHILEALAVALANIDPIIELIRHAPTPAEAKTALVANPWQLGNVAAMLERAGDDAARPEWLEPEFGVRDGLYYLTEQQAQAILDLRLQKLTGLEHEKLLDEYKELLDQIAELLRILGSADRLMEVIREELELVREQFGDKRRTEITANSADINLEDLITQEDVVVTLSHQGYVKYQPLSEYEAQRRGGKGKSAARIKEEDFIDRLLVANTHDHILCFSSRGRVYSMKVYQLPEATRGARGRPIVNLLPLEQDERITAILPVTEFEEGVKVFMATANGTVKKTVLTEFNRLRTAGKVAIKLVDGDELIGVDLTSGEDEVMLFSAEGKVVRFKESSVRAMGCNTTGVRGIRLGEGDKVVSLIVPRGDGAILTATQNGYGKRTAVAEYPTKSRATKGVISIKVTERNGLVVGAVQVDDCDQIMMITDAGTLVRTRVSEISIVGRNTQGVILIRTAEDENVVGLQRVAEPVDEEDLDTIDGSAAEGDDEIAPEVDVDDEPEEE
Sequence of S. aureus GyrB ATPase (P0A0K8 whole entry): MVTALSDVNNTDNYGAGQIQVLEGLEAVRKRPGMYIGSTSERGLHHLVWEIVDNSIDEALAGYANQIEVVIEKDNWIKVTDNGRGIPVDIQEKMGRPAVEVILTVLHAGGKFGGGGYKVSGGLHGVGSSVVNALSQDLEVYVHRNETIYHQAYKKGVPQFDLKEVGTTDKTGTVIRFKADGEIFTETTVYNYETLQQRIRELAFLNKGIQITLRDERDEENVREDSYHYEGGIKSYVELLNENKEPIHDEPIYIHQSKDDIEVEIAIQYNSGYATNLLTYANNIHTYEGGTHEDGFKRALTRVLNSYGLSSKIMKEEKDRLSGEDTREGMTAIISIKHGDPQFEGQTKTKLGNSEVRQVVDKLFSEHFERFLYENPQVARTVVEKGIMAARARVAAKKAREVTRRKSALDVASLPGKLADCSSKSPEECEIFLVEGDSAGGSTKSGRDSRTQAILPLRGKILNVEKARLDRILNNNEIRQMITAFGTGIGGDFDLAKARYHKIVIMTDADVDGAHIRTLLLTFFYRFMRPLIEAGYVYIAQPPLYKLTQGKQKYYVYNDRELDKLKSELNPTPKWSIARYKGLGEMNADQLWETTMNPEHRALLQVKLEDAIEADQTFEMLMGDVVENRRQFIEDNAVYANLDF

SMILES | inhibition at 1 µM [%]
CCNC(=O)Nc1cc(-c2nc(C(F)(F)F)cs2)c(-c2ccc3c(c2)c(=O)c(C(=O)NCCOP(=O)(O)O)cn3C(COC)COC)cn1 [Example 8, 2-(1-(1,3-dimethoxypropan-2-yl)-6-(6-(3-ethylureido)-4-(4-(trifluoromethyl)thiazol-2-yl)pyridin-3-yl)-4-oxo-1,4-dihydroquinoline-3-carboxamido)ethyl dihydrogen phosphate hydrochloride] | 108
CCNC(=O)Nc1cc(-c2nc(-c3ccccc3)cs2)c(-c2cc3c(=O)c(C(=O)O)cn(CCN(C)C)c3cc2OCCN(CC)CC)cn1 [Example 46, 7-(2-(diethylamino)ethoxy)-1-(2-(dimethylamino)ethyl)-6-(6-(3-ethylureido)-4-(4-phenylthiazol-2-yl)pyridin-3-yl)-4-oxo-1,4-dihydroquinoline-3-carboxylic acid] | 108
CCNC(=O)Nc1cc(-c2nc(C(F)(F)F)cs2)c(-c2ccc3c(c2)c(=O)c(C(=O)O)cn3[C@H](COP(=O)(O)O)C(C)(C)C)cn1 [Example 3, (S)-1-(3,3-dimethyl-1-(phosphonooxy)butan-2-yl)-6-(6-(3-ethylureido)-4-(4-(trifluoromethyl)thiazol-2-yl)pyridin-3-yl)-4-oxo-1,4-dihydroquinoline-3-carboxylic acid] | 108
CCNC(=O)Nc1cc(-c2nc(C(F)(F)F)cs2)c(-c2cc3c(=O)c(C(=O)O)cn(CC(C)N(C)C)c3cc2F)cn1 (stereo not drawn) [Example 51, 1-(2-(dimethylamino)propyl)-6-(6-(3-ethylureido)-4-(4-(trifluoromethyl)thiazol-2-yl)pyridin-3-yl)-7-fluoro-4-oxo-1,4-dihydroquinoline-3-carboxylic acid] | 95
CCNC(=O)Nc1cc(-c2nc(C(F)(F)F)cs2)c(-c2ccc3c(c2)c(=O)c(C(=O)O)cn3CCN)cn1 [Example 34, 1-(2-Aminoethyl)-6-{6-[(ethylcarbamoyl)amino]-4-[4-(trifluoromethyl)-1,3-thiazol-2-yl]pyridin-3-yl}-4-oxo-1,4-dihydroquinoline-3-carboxylic acid] | 112
CCNC(=O)Nc1cc(-c2nc(C(F)(F)F)cs2)c(-c2cc3c(=O)c(C(=O)O)cn(C[C@@H]4CCCN4CC)c3cc2OCCN(C)C)cn1 [Example 25, 7-(2-(dimethylamino)ethoxy)-1-(((S)-1-ethylpyrrolidin-2-yl)methyl)-6-(6-(3-ethylureido)-4-(4-(trifluoromethyl)thiazol-2-yl)pyridin-3-yl)-4-oxo-1,4-dihydroquinoline-3-carboxylic acid] | 98
CCNC(=O)Nc1cc(-c2nc(-c3ccccc3)cs2)c(-c2cc3c(=O)c(C(=O)O)cn(C[C@H]4CCCN4CC)c3cc2OCCN(CC)CC)cn1 [Example 45, (R)-7-(2-(diethylamino)ethoxy)-1-((1-ethylpyrrolidin-2-yl)methyl)-6-(6-(3-ethylureido)-4-(4-phenylthiazol-2-yl)pyridin-3-yl)-4-oxo-1,4-dihydroquinoline-3-carboxylic acid] | 102
CCNC(=O)Nc1cc(-c2nc(C(F)(F)F)cs2)c(-c2ccc3c(c2)c(=O)c(C(=O)N(C)C)cn3C[C@H]2CCCNC2)cn1 [Example 33, 6-{6-[(Ethylcarbamoyl)amino]-4-[4-(trifluoromethyl)-1,3-thiazol-2-yl]pyridin-3-yl}-N,N-dimethyl-4-oxo-1-[(3S)-piperidin-3-ylmethyl]-1,4-dihydroquinoline-3-carboxamide] | 104
CCNC(=O)Nc1cc(-c2nc(C(F)(F)F)cs2)c(-c2ccc3c(c2)c(=O)c(C(=O)O)cn3[C@H]2[C@@H]3CN(C)C[C@@H]32)cn1 [Example 35, 6-{6-[(ethylcarbamoyl)amino]-4-[4-(trifluoromethyl)-1,3-thiazol-2-yl]pyridin-3-yl}-1-[(1R,5S,6s)-3-methyl-3-azabicyclo[3.1.0]hex-6-yl]-4-oxo-1,4-dihydroquinoline-3-carboxylic acid] | 108
